{"source": "ChEMBL document CHEMBL1151628", "about": "“Antibacterial constituents of the diatom Navicula delognei” (1984)", "key": {"[1]": {"system": "Staphylococcus epidermidis", "experiment": "Antimicrobial activity against Staphylococcus epidermidis ATCC 12228 at 0.5 mg/disk by disk diffusion assay", "format": "functional"}, "Staphylococcus aureus [2]": {"system": "Staphylococcus aureus", "experiment": "Antimicrobial activity against Staphylococcus aureus ATCC 25923 at 0.5 mg/disk by disk diffusion assay", "format": "functional"}, "Salmonella typhimurium [3]": {"system": "Salmonella typhimurium", "experiment": "Antimicrobial activity against Salmonella Typhimurium ATCC 14028 at 0.5 mg/disk by disk diffusion assay", "format": "functional, Salmonella enterica subsp. enterica serovar Typhimurium"}, "Escherichia coli": {"system": "Escherichia coli", "experiment": "Antimicrobial activity against Escherichia coli ATCC 25922 at 0.5 mg/disk by disk diffusion assay", "format": "functional, organism-based"}, "Proteus vulgaris [4]": {"system": "Proteus vulgaris", "experiment": "Antimicrobial activity against Proteus vulgaris ATCC 13315 at 0.5 mg/disk by disk diffusion assay", "format": "functional"}, "[5]": {"system": "Staphylococcus epidermidis", "experiment": "Antimicrobial activity against Staphylococcus epidermidis ATCC 12228 at 0.1 mg/disk by disk diffusion assay", "format": "functional"}, "Salmonella typhimurium [6]": {"system": "Salmonella typhimurium", "experiment": "Antimicrobial activity against Salmonella Typhimurium ATCC 14028 at 0.1 mg/disk by disk diffusion assay", "format": "functional, Salmonella enterica subsp. enterica serovar Typhimurium"}, "Staphylococcus aureus [7]": {"system": "Staphylococcus aureus", "experiment": "Antimicrobial activity against Staphylococcus aureus ATCC 25923 at 0.1 mg/disk by disk diffusion assay", "format": "functional"}, "Enterobacter cloacae": {"system": "Enterobacter cloacae", "experiment": "Antimicrobial activity against Enterobacter cloacae ATCC 23355 at 0.1 mg/disk by disk diffusion assay", "format": "functional"}, "Serratia marcescens": {"system": "Serratia marcescens", "experiment": "Antimicrobial activity against Serratia marcescens ATCC 8100 at 0.1 mg/disk by disk diffusion assay", "format": "functional"}, "Proteus vulgaris [8]": {"system": "Proteus vulgaris", "experiment": "Antimicrobial activity against Proteus vulgaris ATCC 13315 at 0.1 mg/disk by disk diffusion assay", "format": "functional"}, "Klebsiella pneumoniae": {"system": "Klebsiella pneumoniae", "experiment": "Antimicrobial activity against Klebsiella pneumoniae ATCC 13883 at 0.1 mg/disk by disk diffusion assay", "format": "functional"}}, "note": "The source made the active and inactive calls. The calls are words filed in the database; no cut-off is given here.", "data": [{"smiles": "C=CC/C=C\\C/C=C\\C/C=C\\CCCCC(=O)O", "values": [{"measurement": "inhibition zone (IZ)", "setting": "[1]", "value": ">2", "unit": "mm"}, {"measurement": "inhibition zone (IZ)", "setting": "Staphylococcus aureus [2]", "value": ">2", "unit": "mm"}, {"measurement": "inhibition zone (IZ)", "setting": "Salmonella typhimurium [3]", "value": ">4", "unit": "mm"}, {"measurement": "Activity", "setting": "Escherichia coli", "value": "Active"}, {"measurement": "Activity", "setting": "Proteus vulgaris [4]", "value": "Active"}]}, {"smiles": "CC/C=C\\C/C=C\\C/C=C\\C/C=C\\C/C=C\\CCCC(=O)OC/C=C(\\C)CCCC(C)CCCC(C)CCCC(C)C", "note": "(stereo unspecified)", "values": [{"measurement": "inhibition zone (IZ)", "setting": "[1]", "value": ">2", "unit": "mm"}, {"measurement": "inhibition zone (IZ)", "setting": "Staphylococcus aureus [2]", "value": ">4", "unit": "mm"}, {"measurement": "inhibition zone (IZ)", "setting": "Salmonella typhimurium [3]", "value": ">2", "unit": "mm"}, {"measurement": "Activity", "setting": "Proteus vulgaris [4]", "value": "Active"}]}, {"smiles": "CC1(C)S[C@@H]2[C@H](NC(=O)[C@H](N)c3ccccc3)C(=O)N2[C@H]1C(=O)O", "note": "[AMPICILLIN]", "values": [{"measurement": "inhibition zone (IZ)", "setting": "[5]", "value": ">4", "unit": "mm"}, {"measurement": "inhibition zone (IZ)", "setting": "Salmonella typhimurium [6]", "value": ">4", "unit": "mm"}, {"measurement": "inhibition zone (IZ)", "setting": "Staphylococcus aureus [7]", "value": ">4", "unit": "mm"}, {"measurement": "inhibition zone (IZ)", "setting": "Enterobacter cloacae", "value": ">4", "unit": "mm"}]}, {"smiles": "O=C(N[C@H](CO)[C@H](O)c1ccc([N+](=O)[O-])cc1)C(Cl)Cl", "note": "[CHLORAMPHENICOL]", "values": [{"measurement": "inhibition zone (IZ)", "setting": "Serratia marcescens", "value": ">4", "unit": "mm"}]}, {"smiles": "CC/C=C\\C/C=C\\C/C=C\\C/C=C\\CCCCC(=O)O", "values": [{"measurement": "inhibition zone (IZ)", "setting": "[1]", "value": ">2", "unit": "mm"}, {"measurement": "inhibition zone (IZ)", "setting": "Staphylococcus aureus [2]", "value": ">2", "unit": "mm"}, {"measurement": "inhibition zone (IZ)", "setting": "Salmonella typhimurium [3]", "value": ">2", "unit": "mm"}, {"measurement": "Activity", "setting": "Escherichia coli", "value": "Active"}, {"measurement": "inhibition zone (IZ)", "setting": "Proteus vulgaris [4]", "value": ">2", "unit": "mm"}]}, {"smiles": "CN(C)[C@@H]1C(O)=C(C(N)=O)C(=O)[C@@]2(O)C(O)=C3C(=O)c4c(O)cccc4[C@@](C)(O)[C@H]3C[C@@H]12", "note": "[TETRACYCLINE]", "values": [{"measurement": "inhibition zone (IZ)", "setting": "Proteus vulgaris [8]", "value": ">4", "unit": "mm"}, {"measurement": "inhibition zone (IZ)", "setting": "Klebsiella pneumoniae", "value": ">4", "unit": "mm"}]}]}
